Among the data in patent US10988459B2 (priority 2015, dated 2021) are Ki values, retold here.

pKi: −log10 of the molar value.

Chain of human RIP1 kinase domain (2-375) (Q13546 2-375): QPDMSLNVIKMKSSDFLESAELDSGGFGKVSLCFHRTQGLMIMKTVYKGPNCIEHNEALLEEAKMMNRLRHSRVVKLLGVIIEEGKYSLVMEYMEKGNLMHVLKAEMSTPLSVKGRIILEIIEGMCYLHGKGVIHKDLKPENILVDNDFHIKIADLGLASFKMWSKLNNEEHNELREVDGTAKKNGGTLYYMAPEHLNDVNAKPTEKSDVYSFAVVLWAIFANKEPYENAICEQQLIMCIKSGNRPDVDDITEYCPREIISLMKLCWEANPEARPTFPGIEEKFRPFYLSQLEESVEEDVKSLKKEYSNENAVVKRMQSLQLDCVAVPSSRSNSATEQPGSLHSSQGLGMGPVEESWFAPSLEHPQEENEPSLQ

The first test has as its target human RIP1 kinase domain (2-375) (Homo sapiens (Human), UniProt Q13546). In words: biochemical. The class given is biochemical. The conditions noted are these: Table 3; apparent Ki (Morrison tight-binding fit); 50 nM RIP1 kinase domain, 50 uM ATP, 2 hours incubation; read-out: Ki. Put shortly:
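50 nM purified kinase domain from baculovirus-infected insect cells, incubated 2 h with compound in 50 mM Hepes pH 7.5, 30 mM MgCl2, 1 mM DTT, 50 uM ATP, 0.002% Brij-35, 0.5% DMSO. ADP formation read by Transcreener FP at 633 nm excitation. Ki^app fitted with the Morrison tight-binding equation.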
Turning to `Cc1cc2n(n1)CCC(NC(=O)c1ncn(Cc3ccccc3)n1)C(=O)N2C` (stereo not shown) [Example 333, 1-benzyl-N-(2,4-dimethyl-5-oxo-5,6,7,8-tetrahydro-4H-pyrazolo[1,5-a][1,3]diazepin-6-yl)-1H-1,2,4-triazole-3-carboxamide], the pKi was 7.17.
Still for that read-out and setting: the same measure for `CN1C(=O)[C@@H](NC(=O)c2ncn(Cc3ccccc3)n2)CCn2nccc21` [Example 334, (S)-1-benzyl-N-(4-methyl-5-oxo-5,6,7,8-tetrahydro-4H-pyrazolo[1,5-a][1,3]diazepin-6-yl)-1H-1,2,4-triazole-3-carboxamide]: 7.57.

Staying with this test, now noted: human RIP1 kinase domain (2-375), Transcreener ADP assay, 50 uM ATP, 2 hours incubation; read-out: RIP1 Ki.
For `CCC1(C)OCc2cnc(C(=O)N[C@H]3COc4ccccc4N(C)C3=O)nc21` (stereo partly drawn) [Example 310, 7-ethyl-7-methyl-N—((S)-5-methyl-4-oxo-2,3,4,5-tetrahydrobenzo[b][1,4]oxazepin-3-yl)-5,7-dihydrofuro[3,4-d]pyrimidine-2-carboxamide], the pKi was 7.43.
For `CN1C(=O)[C@@H](NC(=O)c2ncn(Cc3cccc(F)c3F)n2)CCn2nc([C@H]3CC3(F)F)cc21` [Example 311, 1-(2,3-difluorobenzyl)-N—((S)-2-((R)-2,2-difluorocyclopropyl)-4-methyl-5-oxo-5,6,7,8-tetrahydro-4H-pyrazolo[1,5-a][1,3]diazepin-6-yl)-1H-1,2,4-triazole-3-carboxamide], the pKi is 5.28.
As to `CN1C(=O)[C@H](NC(=O)c2ncn(Cc3cccc(F)c3F)n2)CCn2nc([C@H]3CC3(F)F)cc21` [Example 312, 1-(2,3-difluorobenzyl)-N—((R)-2-((R)-2,2-difluorocyclopropyl)-4-methyl-5-oxo-5,6,7,8-tetrahydro-4H-pyrazolo[1,5-a][1,3]diazepin-6-yl)-1H-1,2,4-triazole-3-carboxamide], the pKi is 7.75.
For `CN1C(=O)[C@@H](NC(=O)c2ncn(Cc3ccc(F)c(F)c3)n2)CCn2nc([C@H]3CC3(F)F)cc21` [Example 313, 1-(3,4-difluorobenzyl)-N—((S)-2-((R)-2,2-difluorocyclopropyl)-4-methyl-5-oxo-5,6,7,8-tetrahydro-4H-pyrazolo[1,5-a][1,3]diazepin-6-yl)-1H-1,2,4-triazole-3-carboxamide], the pKi is 5.23.
Still for that read-out and setting: as for `CN1C(=O)[C@H](NC(=O)c2ncn(Cc3ccc(F)c(F)c3)n2)CCn2nc([C@H]3CC3(F)F)cc21` [Example 314, 1-(3,4-difluorobenzyl)-N—((R)-2-((R)-2,2-difluorocyclopropyl)-4-methyl-5-oxo-5,6,7,8-tetrahydro-4H-pyrazolo[1,5-a][1,3]diazepin-6-yl)-1H-1,2,4-triazole-3-carboxamide], the figure is 7.36.
Still for that read-out and setting: as for `CN1C(=O)[C@@H](NC(=O)c2ncn(Cc3ccc(F)cc3F)n2)CCn2nc([C@H]3CC3(F)F)cc21` [Example 315, 1-(2,4-difluorobenzyl)-N—((S)-2-((R)-2,2-difluorocyclopropyl)-4-methyl-5-oxo-5,6,7,8-tetrahydro-4H-pyrazolo[1,5-a][1,3]diazepin-6-yl)-1H-1,2,4-triazole-3-carboxamide], the figure is 5.02; as for `CN1C(=O)[C@H](NC(=O)c2ncn(Cc3ccc(F)cc3F)n2)CCn2nc([C@H]3CC3(F)F)cc21` [Example 316, 1-(2,4-difluorobenzyl)-N—((R)-2-((R)-2,2-difluorocyclopropyl)-4-methyl-5-oxo-5,6,7,8-tetrahydro-4H-pyrazolo[1,5-a][1,3]diazepin-6-yl)-1H-1,2,4-triazole-3-carboxamide], 7.50; as for `CN1C(=O)[C@@H](NC(=O)c2ncn(Cc3ccc(F)cc3)n2)CCn2nc([C@H]3CC3(F)F)cc21` [Example 317, N—((S)-2-((R)-2,2-difluorocyclopropyl)-4-methyl-5-oxo-5,6,7,8-tetrahydro-4-pyrazolo[1,5-a][1,3]diazepin-6-yl)-1-(4-fluorobenzyl)-1H-1,2,4-triazole-3-carboxamide], 5.18.
The same measure, in the same setting: as for `CN1C(=O)[C@H](NC(=O)c2ncn(Cc3ccc(F)cc3)n2)CCn2nc([C@H]3CC3(F)F)cc21` [Example 318, N—((R)-2-((R)-2,2-difluorocyclopropyl)-4-methyl-5-oxo-5,6,7,8-tetrahydro-4H-pyrazolo[1,5-a][1,3]diazepin-6-yl)-1-(4-fluorobenzyl)-1H-1,2,4-triazole-3-carboxamide], the figure is 7.60.
Take `CC[C@]1(C)OCc2cnc(C(=O)N[C@H]3CCn4nc([C@H]5CC5(F)F)cc4N(C)C3=O)cc21` [Example 319, (S)—N—((S)-2-((R)-2,2-difluorocyclopropyl)-4-methyl-5-oxo-5,6,7,8-tetrahydro-4H-pyrazolo[1,5-a][1,3]diazepin-6-yl)-1-ethyl-1-methyl-1,3-dihydrofuro[3,4-c]pyridine-6-carboxamide]: the pKi was less than 5.00.
On the same count and under the same terms, as for `CN1C(=O)[C@@H](NC(=O)c2ncn(Cc3cccc(F)c3F)n2)CCn2nc([C@@H]3CC3(F)F)cc21` [Example 320, 1-(2,3-difluorobenzyl)-N—((S)-2-((S)-2,2-difluorocyclopropyl)-4-methyl-5-oxo-5,6,7,8-tetrahydro-4H-pyrazolo[1,5-a][1,3]diazepin-6-yl)-1H-1,2,4-triazole-3-carboxamide], the figure is 7.79; as for `CN1C(=O)[C@@H](NC(=O)c2ncn(Cc3ccc(F)c(F)c3)n2)CCn2nc([C@@H]3CC3(F)F)cc21` [Example 321, 1-(3,4-difluorobenzyl)-N—((S)-2-((S)-2,2-difluorocyclopropyl)-4-methyl-5-oxo-5,6,7,8-tetrahydro-4H-pyrazolo[1,5-a][1,3]diazepin-6-yl)-1H-1,2,4-triazole-3-carboxamide], 7.17.
On the same count and under the same terms, the same measure for `CN1C(=O)[C@@H](NC(=O)c2ncn(Cc3ccc(F)cc3F)n2)CCn2nc([C@@H]3CC3(F)F)cc21` [Example 322, 1-(2,4-difluorobenzyl)-N—((S)-2-((S)-2,2-difluorocyclopropyl)-4-methyl-5-oxo-5,6,7,8-tetrahydro-4H-pyrazolo[1,5-a][1,3]diazepin-6-yl)-1H-1,2,4-triazole-3-carboxamide]: 7.54; for `CN1C(=O)[C@@H](NC(=O)c2ncn(Cc3ccc(F)cc3)n2)CCn2nc([C@@H]3CC3(F)F)cc21` [Example 323, N—((S)-2-((S)-2,2-difluorocyclopropyl)-4-methyl-5-oxo-5,6,7,8-tetrahydro-4H-pyrazolo[1,5-a][1,3]diazepin-6-yl)-1-(4-fluorobenzyl)-1H-1,2,4-triazole-3-carboxamide]: 7.24.
In the case of `CC[C@@]1(C)OCc2cnc(C(=O)N[C@@H]3CCn4nc([C@H]5CC5(F)F)cc4N(C)C3=O)cc21` [Example 324, (R)—N—((R)-2-((R)-2,2-difluorocyclopropyl)-4-methyl-5-oxo-5,6,7,8-tetrahydro-4H-pyrazolo[1,5-a][1,3]diazepin-6-yl)-1-ethyl-1-methyl-1,3-dihydrofuro[3,4-c]pyridine-6-carboxamide], the pKi is 5.89.
Regarding `CC[C@@]1(C)OCc2cnc(C(=O)N[C@H]3CCn4nc([C@@H]5CC5(F)F)cc4N(C)C3=O)cc21` [Example 325, (R)—N—((S)-2-((S)-2,2-difluorocyclopropyl)-4-methyl-5-oxo-5,6,7,8-tetrahydro-4H-pyrazolo[1,5-a][1,3]diazepin-6-yl)-1-ethyl-1-methyl-1,3-dihydrofuro[3,4-c]pyridine-6-carboxamide], the pKi was 5.48.
The same measure, in the same setting: the same measure for `CCC1(C)OCc2cnc(C(=O)N[C@H]3CCn4nc(C)cc4N(C)C3=O)nc21` (stereo partly drawn) [Example 326, N—((S)-2,4-dimethyl-5-oxo-5,6,7,8-tetrahydro-4H-pyrazolo[1,5-a][1,3]diazepin-6-yl)-7-ethyl-7-methyl-5,7-dihydrofuro[3,4-d]pyrimidine-2-carboxamide]: 6.21; for `CN1C(=O)[C@@H](NC(=O)c2cc(C3(O)CCC3)ccn2)COc2ccccc21` [Example 327, (S)-4-(1-hydroxycyclobutyl)-N-(5-methyl-4-oxo-2,3,4,5-tetrahydrobenzo[b][1,4]oxazepin-3-yl)picolinamide]: 5.86; for `CN1C(=O)[C@@H](NC(=O)c2cc(C3(O)CCCC3)ccn2)COc2ccccc21` [Example 328, (S)-4-(1-hydroxycyclopentyl)-N-(5-methyl-4-oxo-2,3,4,5-tetrahydrobenzo[b][1,4]oxazepin-3-yl)picolinamide]: 6.00.
Regarding `Cc1cc2n(n1)CC[C@@H](NC(=O)c1nnc(Cc3ccc(F)cc3)[nH]1)C(=O)N2C` [Example 329, (R)—N-(2,4-dimethyl-5-oxo-5,6,7,8-tetrahydro-4H-pyrazolo[1,5-a][1,3]diazepin-6-yl)-5-(4-fluorobenzyl)-4H-1,2,4-triazole-3-carboxamide], the pKi is 5.42.
On the same count and under the same terms, as for `Cc1nn2c(c1C)N(C)C(=O)[C@@H](NC(=O)c1nnc(Cc3ccc(F)cc3)[nH]1)CC2` [Example 330, (S)-5-(4-fluorobenzyl)-N-(2,3,4-trimethyl-5-oxo-5,6,7,8-tetrahydro-4H-pyrazolo[1,5-a][1, 3]diazepin-6-yl)-4H-1,2,4-triazole-3-carboxamide], the figure is 6.99; as for `CN1C(=O)[C@@H](NC(=O)c2ncn(Cc3cccc(F)c3F)n2)CCn2nc(C3CC3)cc21` [Example 331, (S)—N-(2-cyclopropyl-4-methyl-5-oxo-5,6,7,8-tetrahydro-4H-pyrazolo[1,5-a][1,3]diazepin-6-yl)-1-(2,3-difluorobenzyl)-1H-1,2,4-triazole-3-carboxamide], 7.89; as for `CN1C(=O)[C@@H](NC(=O)c2nnc(Cc3ccc(F)cc3)[nH]2)CCn2nc(C3CC3)cc21` [Example 332, (S)—N-(2-cyclopropyl-4-methyl-5-oxo-5,6,7,8-tetrahydro-4H-pyrazolo[1,5-a][1,3]diazepin-6-yl)-5-(4-fluorobenzyl)-4H-1,2,4-triazole-3-carboxamide], 7.06.

A word on the pKi: it is −log10 of the Ki, conventionally taken in molar units.
